“Also recorded” adds a separate entry of the source.
Legend:
[1] = Body weight of Aβ oligomer-treated mice during treatment; format: in vivo, ICR mice; conditions: last day of experiment, gavage 13 d twice a day, acyclovir 500 mg/kg, DXMT 2 mg/kg, donepezil 2.5 mg/kg
Protocol: (§1) The acyclovir, DXMT and donepezil were dissolved in water.
(§2) Mice recover for 3 d without any experiments.
Briefly, on day 1, the Aβ oligomers are injected into both sides of the mouse hippocampus. The mice are let recover for 3 d. On days 4 to 16, mice are treated differently for 13 d. On day 17, a motor function of the mice is examined by the open field test. On days 18-24, the spatial cognition is tested by the Morris water maze test. On day 25, the mice are sacrificed for biochemical studies.
Digestive disturbance is one of the common adverse effects of acyclovir. Long-term treatment with acyclovir may cause indigestion and malnutrition, leading to weight loss. Therefore, the body weight of the mice is measured every 2 d to 3 d during the experiment.

Aβ oligomer-treated mice [2] = assay: Morris water maze test (spatial cognition); format: in vivo, ICR mice; conditions: acyclovir 500 mg/kg, DXMT 2 mg/kg, donepezil 2.5 mg/kg; for time in the target area compared with the Aβ group: probe trial, platform removed, 90 sec
Protocol: as §1, §2
The spatial memory is assessed with the Morris water maze test^10. The Morris water maze is a circular pool (110 cm in diameter) filled with water at a temperature of 23±2° C., and has a platform. Except on a last day, the platform is always placed in a center of a northwest quadrant. Swimming tracks are recorded by a video recorder connected to a computer. Each mouse is trained on positioning the platform over a four-day trial, and learning is assessed daily for four consecutive days. The time mice take to enter a hidden platform is measured. On the last day, the platform is removed and the mice are trained to swim for 90 sec for a probe trial. The swimming times are recorded in the four quadrants of the pool. A tendency to appear in the quadrant occupied before the platform indicates a spatial memory ability.

interleukin-6 (IL-6) = assay: ELISA of IL-6 in mouse hippocampus; format: in vivo, ICR mice; conditions: acyclovir 500 mg/kg, DXMT 2 mg/kg, donepezil 2.5 mg/kg
Protocol: as §1, §2
(§3) One day after the Morris water maze test, mice are deeply anesthetized and transcardially perfused with an ice-cold saline. The brain is quickly dissected. Hippocampal proteins are extracted and stored at −80° C. prior to use in a Western blotting assay (4 mice per group) and an enzyme-linked immunosorbent assay (ELISA, 3 mice per group). Intact brain tissues (3 mice per group) are stored in a formalin solution at […] prior to staining using immunohistochemistry (IHC).
Determination was conducted on concentrations of interleukin-6 (IL-6) and tumor necrosis factor-α (TNF-α) in mouse hippocampus using freshly prepared brain tissues. Brain samples are homogenized in a 0.1M phosphate buffered saline. A resulting brain extract is centrifuged to 2,000 g at 4° C. for 15 min. Concentrations of IL-6 and TNF-α are determined with an ELISA kit (Excell Bio, Shanghai, China) according to the manufacturer's protocol. An absorbance is read.

IL-17 = assay: Western blotting of IL-17 in mouse hippocampus; format: in vivo, ICR mice; conditions: acyclovir 500 mg/kg, DXMT 2 mg/kg, donepezil 2.5 mg/kg
Protocol: as §1, §2, §3
(§4) The Western blotting assay is conducted as previously described^11. Briefly, the brain tissues from hippocampus are extracted in a lysis buffer for 1 min and centrifuged at 16,000 g for 10 min. Protein levels in a supernatant are estimated by a Bradford analysis, the proteins are separated on an SDS-polyacrylamide gel, and electrotransferred to a polyvinylidene fluoride membrane. After 2 h of incubation with 5% skim milk in TBST, incubation is conducted for 12 h with corresponding antibodies Tau, IL-17 (Santa Cruz Biotechnology, Shanghai, China), pSer396-Tau, PSD-95, and β-actin (Cell Signaling Technology, Inc., Beverly, Mass., USA). […] The data is expressed as a ratio of an optical density (OD) compared to the control and a statistical analysis.

[3] = test system: glial fibrillary acidic protein (GFAP); assay: IHC staining of GFAP (astrocyte activation) in hippocampus; format: in vivo, ICR mice; conditions: acyclovir 500 mg/kg, DXMT 2 mg/kg, donepezil 2.5 mg/kg
Protocol: as §1, §2, §3
(§5) IHC staining is conducted according to previously reported protocols^11. Briefly, after the Morris water maze test, the brains are dissected and incubated with 4% paraformaldehyde for 1 d. Brain specimens are dehydrated, paraffin-embedded, and sliced into 4-micron slices. Hippocampal sections are dewaxed and rehydrated. Treatment with 3% H2O2 is conducted for 10 min to inhibit a cellular peroxidase activity. Sections are incubated overnight at 4° C. with primary antibodies to a CD45 antigen and a glial fibrillary acidic protein (GFAP). […] The sections are labeled with DAB and analyzed colorimetrically. A mean OD of the area is analyzed using Image Pro 6.0 (Media Cybernetics Inc., MD, USA). […] Positive area and OD are determined by measurements on randomly selected microscope fields on each slide. […]

PSD-95 = assay: Western blotting of PSD-95 in mouse hippocampus; format: in vivo, ICR mice; conditions: acyclovir 500 mg/kg, DXMT 2 mg/kg, donepezil 2.5 mg/kg
Protocol: as §1, §2, §3, §4

CD45 = assay: IHC staining of CD45 (microglia activation) in hippocampus; format: in vivo, ICR mice; conditions: acyclovir 500 mg/kg, DXMT 2 mg/kg
Protocol: as §1, §2, §3, §5

pSer396-Tau = assay: Western blotting of pTau in mouse hippocampus; format: in vivo, ICR mice; conditions: acyclovir 500 mg/kg, DXMT 2 mg/kg
Protocol: as §1, §2, §3, §4

HSV-1-infected cells = conditions: cited from earlier work
Aβ oligomer-treated mice [4] = assay: Open field experiment (motor activity); conditions: day 17, 5 min, acyclovir 500 mg/kg, DXMT 2 mg/kg
Protocol: Zhejiang Academy of Medical Sciences has provided ICR mice weighing about 25 g. The mice are subjected to a 12-h illumination/darkness cycle at 22±2° C. (humidity: 50±10%) and are provided with water and standard food. The acyclovir, DXMT and donepezil were dissolved in water. The mice are randomly divided into 6 groups with 10 mice in each group, including: a control group, an Aβ oligomer group, an Aβ+500 mg/kg acyclovir group, an Aβ+2 mg/kg DXMT group, an Aβ+500 mg/kg acyclovir, 2 mg/kg DXMT group, and an Aβ+2.5 mg/kg donepezil group. The mice are anesthetized by intraperitoneal injection of sodium pentobarbital (50 mg/kg) and placed in a stereotaxic apparatus (RWD Life Science Co., Ltd., Shenzhen, China).
On day 1, the Aβ oligomer was injected into a bilateral ventricle region. A micro-dose is injected (1 μl/side) over 5 min. To reduce backflow, the cannula is left in place for 5 min. […] Mice recover for 3 d without any experiments. […]
To analyze a motor activity and exploratory behavior, the mice are housed in an open field (50 cm×50 cm×39 cm) with white plywood walls and brown floors. […] The number of crossed lines of four paws and the number of feedings are recorded using a hand-held counter and stopwatch, which are used to mark the motor activity and exploratory behavior. […]

COc1cc2c(cc1OC)C(=O)C(CC1CCN(Cc3ccccc3)CC1)C2 (centres unmarked) [donepezil]
body weight compared with the control group [1]: does not change the body weight | time to find the hidden platform (latency) compared with the Aβ group (Aβ oligomer-treated mice [2]; last day of training, gavage 13 d): significantly shorter | time in the target area compared with the Aβ group (Aβ oligomer-treated mice [2]): significantly longer | Aβ-induced increase in IL-6 expression compared with the Aβ group (interleukin-6 (IL-6)): does not alter the expression of IL-6 | Aβ-induced increase in IL-17 expression compared with the Aβ group (IL-17): does not alter the expression of IL-17 | Aβ-induced increase in the mean OD of GFAP compared with the Aβ group [3]: neither acyclovir nor donepezil treatment can change | expression of PSD-95 compared with the Aβ group (PSD-95): does not alter the expression of PSD-95

Nc1nc2c(ncn2COCCO)c(=O)[nH]1 [acyclovir]
time in the target area compared with the Aβ group (Aβ oligomer-treated mice [2]): do not show a better performance | Aβ-induced increase in IL-6 expression compared with the Aβ group (interleukin-6 (IL-6)): does not significantly reduce IL-6 production | Aβ-induced increase in IL-17 expression compared with the Aβ group (IL-17): cannot reduce the expression of IL-17 | Aβ-induced increase in the mean OD of GFAP compared with the Aβ group [3]: significantly reduce; also recorded: neither acyclovir nor donepezil treatment can change | Aβ-induced increase in CD45 mean OD compared with the Aβ group (CD45): can inhibit the activation of microglia | expression of PSD-95 compared with the Aβ group (PSD-95): does not alter the expression of PSD-95 | Aβ-induced increase in pTau expression compared with the Aβ group (pSer396-Tau): significantly attenuate | inhibition of aberrant tau phosphorylation (HSV-1-infected cells): ~100% | reduction of HSV-1-induced Aβ accumulation (HSV-1-infected cells): 70% | motor function (number of standing, number of crossing lines) (Aβ oligomer-treated mice [4]): do not significantly alter the motor function
